Measured values reported in the NIST ThermoML archive (doi:10.1021/je100864e).

Test: mn = molality of the nth substance listed, in mol/kg
Conditions: 101 kPa, Liquid; for speed of sound: Pulse-echo method

O=C([O-])CC(O)(CC(=O)O)C(=O)O.[Na+] [sodium dihydrogen citrate] + O
Conditions | mass density, 288.15 K [kg/m3] | mass density, 293.15 K [kg/m3] | speed of sound, 288.15 K [m/s] | speed of sound, 293.15 K [m/s] | speed of sound, 298.15 K [m/s]
m1 = 0.0093 | 1000.17 | 999.26 | 1467.7 | 1483.7 | 1497.9
m1 = 0.0117 | 1000.44 | 999.519 | 1467.9 | 1483.9 | 1498.1
m1 = 0.0125 | 1000.53 | 999.616 | 1468 | 1484 | 1498.2
m1 = 0.0138 | 1000.68 | 999.756 | 1468.1 | 1484.1 | 1498.3
m1 = 0.0155 | 1000.87 | 999.956 | 1468.3 | 1484.3 | 1498.5
m1 = 0.0163 | 1000.97 | 1000.04 | 1468.4 | 1484.4 | 1498.5
m1 = 0.0187 | 1001.24 | 1000.31 | 1468.7 | 1484.7 | 1498.8
m1 = 0.0202 | 1001.42 | 1000.49 | 1468.9 | 1484.8 | 1498.9
m1 = 0.0209 | 1001.49 | 1000.56 | 1468.9 | 1484.9 | 1499
m1 = 0.024 | 1001.85 | 1000.91 | 1469.3 | 1485.2 | 1499.3
m1 = 0.0279 | 1002.29 | 1001.35 | 1469.8 | 1485.6 | 1499.7
m1 = 0.0327 | 1002.84 | 1001.89 | 1470.2 | 1486 | 1500.1
m1 = 0.0376 | 1003.39 | 1002.44 | 1470.8 | 1486.6 | 1500.6
m1 = 0.0409 | 1003.78 | 1002.82 | 1471.1 | 1486.9 | 1500.9
m1 = 0.047 | 1004.47 | 1003.49 | 1471.8 | 1487.6 | 1501.5
m1 = 0.0681 | 1006.85 | 1005.84 | 1474 | 1489.7 | 1503.5
m1 = 0.0937 | 1009.71 | 1008.67 | 1476.8 | 1492.3 | 1505.9
m1 = 0.1194 | 1012.55 | 1011.47 | 1479.5 | 1494.8 | 1508.3
m1 = 0.144 | 1015.25 | 1014.13 | 1482 | 1497.2 | 1510.5
m1 = 0.1678 | 1017.83 | 1016.68 | 1484.6 | 1499.6 | 1512.7
m1 = 0.1911 | 1020.35 | 1019.17 | 1487 | 1501.8 | 1514.9
m1 = 0.2165 | 1023.07 | 1021.86 | 1489.5 | 1504.1 | 1517
m1 = 0.2412 | 1025.7 | 1024.45 | 1492 | 1506.5 | 1519.3
m1 = 0.2934 | 1031.2 | 1029.89 | 1497.3 | 1511.5 | 1524
m1 = 0.3205 | 1034.04 | 1032.69 | 1500 | 1514 | 1526.3
m1 = 0.3395 | 1036.01 | 1034.64 | 1501.8 | 1515.8 | 1528
m1 = 0.3728 | 1039.43 | 1038.03 | 1505.1 | 1518.8 | 1530.9
m1 = 0.3936 | 1041.57 | 1040.14 | 1507.1 | 1520.7 | 1532.7
